The source of these data is PMC4490028 (Cancer research, 2015).

For orientation: Km means the substrate concentration at which the rate is half of its maximum.

Data set [1] has as its target mouse Abcc2 (Mus musculus, UniProt Q8VI47). Kind of data set: In vitro vesicular transport, inside-out Sf9 vesicles expressing mouse Abcc2. The conditions noted are these: SG 10 µM, 5-min incubation, ATP 4 mM.
The subject of data set [2] is Abcc2. Kind of data set: Pharmacokinetics.
Data set [3] concerns the target T1, human ABCC4 (Homo sapiens, UniProt O15439).
T1 sequence (O15439 1-1325): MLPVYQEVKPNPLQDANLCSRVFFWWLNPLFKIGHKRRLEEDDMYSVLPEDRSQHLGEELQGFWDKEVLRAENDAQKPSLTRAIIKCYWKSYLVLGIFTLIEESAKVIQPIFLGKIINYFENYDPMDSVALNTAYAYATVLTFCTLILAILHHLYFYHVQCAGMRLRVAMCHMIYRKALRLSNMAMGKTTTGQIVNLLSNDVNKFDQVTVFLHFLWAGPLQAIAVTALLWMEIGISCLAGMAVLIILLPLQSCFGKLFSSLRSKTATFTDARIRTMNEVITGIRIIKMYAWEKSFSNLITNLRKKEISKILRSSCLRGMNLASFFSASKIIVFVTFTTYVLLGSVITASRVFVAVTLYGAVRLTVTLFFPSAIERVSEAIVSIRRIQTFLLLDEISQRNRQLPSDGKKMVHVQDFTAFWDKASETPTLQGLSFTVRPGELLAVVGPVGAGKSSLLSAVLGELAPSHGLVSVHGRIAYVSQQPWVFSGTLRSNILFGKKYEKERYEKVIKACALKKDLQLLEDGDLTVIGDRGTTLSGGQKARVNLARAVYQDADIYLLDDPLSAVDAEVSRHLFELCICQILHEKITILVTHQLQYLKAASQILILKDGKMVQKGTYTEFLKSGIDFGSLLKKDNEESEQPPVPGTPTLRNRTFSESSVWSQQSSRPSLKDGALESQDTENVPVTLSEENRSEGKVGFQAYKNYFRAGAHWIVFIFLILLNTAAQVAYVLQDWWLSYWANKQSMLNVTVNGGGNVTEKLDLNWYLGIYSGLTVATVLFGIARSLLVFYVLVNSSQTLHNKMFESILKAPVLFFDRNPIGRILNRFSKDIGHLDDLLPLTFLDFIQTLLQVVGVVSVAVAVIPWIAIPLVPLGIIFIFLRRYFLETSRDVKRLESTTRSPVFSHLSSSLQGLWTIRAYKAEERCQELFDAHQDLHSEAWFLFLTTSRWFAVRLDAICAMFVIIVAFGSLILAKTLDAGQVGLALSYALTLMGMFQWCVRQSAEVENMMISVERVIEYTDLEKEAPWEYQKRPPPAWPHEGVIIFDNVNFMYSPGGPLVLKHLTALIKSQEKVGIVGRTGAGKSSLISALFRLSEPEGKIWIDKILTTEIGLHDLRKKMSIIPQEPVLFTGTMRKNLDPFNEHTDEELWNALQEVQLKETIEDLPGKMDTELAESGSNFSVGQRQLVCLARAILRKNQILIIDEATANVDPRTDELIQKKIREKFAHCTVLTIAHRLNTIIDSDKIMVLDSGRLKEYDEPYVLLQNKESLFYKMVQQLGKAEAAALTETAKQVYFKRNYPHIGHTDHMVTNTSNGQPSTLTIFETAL
Kind of data set: In vitro vesicular transport, inside-out Sf9 vesicles expressing human ABCC4.

Data set [4] deals with rat Abcc2 (Rattus norvegicus, UniProt Q63120). Kind of data set: In vitro vesicular transport, inside-out Sf9 vesicles expressing rat Abcc2. The conditions noted are these: 5-min incubation, ATP 4 mM.
Sequence of rat Abcc2 (Q63120 whole entry): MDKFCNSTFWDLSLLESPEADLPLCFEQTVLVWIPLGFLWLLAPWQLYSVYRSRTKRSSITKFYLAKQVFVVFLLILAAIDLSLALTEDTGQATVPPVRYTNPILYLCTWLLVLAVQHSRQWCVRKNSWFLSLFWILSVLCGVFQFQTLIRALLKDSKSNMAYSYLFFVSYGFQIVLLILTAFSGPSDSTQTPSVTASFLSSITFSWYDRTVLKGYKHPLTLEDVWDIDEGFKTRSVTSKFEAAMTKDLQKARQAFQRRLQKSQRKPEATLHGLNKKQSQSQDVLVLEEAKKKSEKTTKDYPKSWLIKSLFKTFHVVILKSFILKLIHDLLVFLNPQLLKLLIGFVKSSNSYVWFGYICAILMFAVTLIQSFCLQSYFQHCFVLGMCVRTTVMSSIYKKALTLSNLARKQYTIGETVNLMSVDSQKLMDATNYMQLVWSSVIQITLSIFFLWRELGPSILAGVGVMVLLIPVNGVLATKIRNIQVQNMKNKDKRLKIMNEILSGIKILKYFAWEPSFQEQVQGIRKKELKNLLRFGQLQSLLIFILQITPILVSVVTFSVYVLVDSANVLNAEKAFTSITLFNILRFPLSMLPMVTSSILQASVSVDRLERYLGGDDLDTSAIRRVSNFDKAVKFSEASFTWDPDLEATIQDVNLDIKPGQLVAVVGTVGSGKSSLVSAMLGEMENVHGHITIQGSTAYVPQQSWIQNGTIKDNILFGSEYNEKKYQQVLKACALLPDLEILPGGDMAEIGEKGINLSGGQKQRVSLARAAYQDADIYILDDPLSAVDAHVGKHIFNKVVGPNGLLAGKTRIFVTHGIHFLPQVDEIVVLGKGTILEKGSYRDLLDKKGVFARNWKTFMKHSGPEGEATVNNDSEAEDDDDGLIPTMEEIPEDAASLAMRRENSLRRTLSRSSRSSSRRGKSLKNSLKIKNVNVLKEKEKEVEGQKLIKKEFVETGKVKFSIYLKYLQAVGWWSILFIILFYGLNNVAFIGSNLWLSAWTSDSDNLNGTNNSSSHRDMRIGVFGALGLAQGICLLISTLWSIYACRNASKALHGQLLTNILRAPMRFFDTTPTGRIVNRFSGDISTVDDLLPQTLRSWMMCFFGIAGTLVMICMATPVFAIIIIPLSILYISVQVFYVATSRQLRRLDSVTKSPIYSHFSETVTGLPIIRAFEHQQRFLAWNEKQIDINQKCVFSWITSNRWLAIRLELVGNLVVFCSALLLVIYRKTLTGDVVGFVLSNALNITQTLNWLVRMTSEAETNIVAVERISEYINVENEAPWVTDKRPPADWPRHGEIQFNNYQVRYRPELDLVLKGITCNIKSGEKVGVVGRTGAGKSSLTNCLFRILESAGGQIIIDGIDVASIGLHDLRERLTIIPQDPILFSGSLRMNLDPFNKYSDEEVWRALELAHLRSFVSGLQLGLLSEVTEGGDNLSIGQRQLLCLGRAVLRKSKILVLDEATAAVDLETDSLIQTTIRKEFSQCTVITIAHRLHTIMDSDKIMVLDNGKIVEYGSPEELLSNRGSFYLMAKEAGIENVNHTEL
Data set [5] deals with human ABCC3 (Homo sapiens, UniProt O15438). Kind of data set: In vitro vesicular transport, inside-out Sf9 vesicles expressing human ABCC3. The data set is classed as in vitro ADME.
Sequence of human ABCC3 (O15438 whole entry): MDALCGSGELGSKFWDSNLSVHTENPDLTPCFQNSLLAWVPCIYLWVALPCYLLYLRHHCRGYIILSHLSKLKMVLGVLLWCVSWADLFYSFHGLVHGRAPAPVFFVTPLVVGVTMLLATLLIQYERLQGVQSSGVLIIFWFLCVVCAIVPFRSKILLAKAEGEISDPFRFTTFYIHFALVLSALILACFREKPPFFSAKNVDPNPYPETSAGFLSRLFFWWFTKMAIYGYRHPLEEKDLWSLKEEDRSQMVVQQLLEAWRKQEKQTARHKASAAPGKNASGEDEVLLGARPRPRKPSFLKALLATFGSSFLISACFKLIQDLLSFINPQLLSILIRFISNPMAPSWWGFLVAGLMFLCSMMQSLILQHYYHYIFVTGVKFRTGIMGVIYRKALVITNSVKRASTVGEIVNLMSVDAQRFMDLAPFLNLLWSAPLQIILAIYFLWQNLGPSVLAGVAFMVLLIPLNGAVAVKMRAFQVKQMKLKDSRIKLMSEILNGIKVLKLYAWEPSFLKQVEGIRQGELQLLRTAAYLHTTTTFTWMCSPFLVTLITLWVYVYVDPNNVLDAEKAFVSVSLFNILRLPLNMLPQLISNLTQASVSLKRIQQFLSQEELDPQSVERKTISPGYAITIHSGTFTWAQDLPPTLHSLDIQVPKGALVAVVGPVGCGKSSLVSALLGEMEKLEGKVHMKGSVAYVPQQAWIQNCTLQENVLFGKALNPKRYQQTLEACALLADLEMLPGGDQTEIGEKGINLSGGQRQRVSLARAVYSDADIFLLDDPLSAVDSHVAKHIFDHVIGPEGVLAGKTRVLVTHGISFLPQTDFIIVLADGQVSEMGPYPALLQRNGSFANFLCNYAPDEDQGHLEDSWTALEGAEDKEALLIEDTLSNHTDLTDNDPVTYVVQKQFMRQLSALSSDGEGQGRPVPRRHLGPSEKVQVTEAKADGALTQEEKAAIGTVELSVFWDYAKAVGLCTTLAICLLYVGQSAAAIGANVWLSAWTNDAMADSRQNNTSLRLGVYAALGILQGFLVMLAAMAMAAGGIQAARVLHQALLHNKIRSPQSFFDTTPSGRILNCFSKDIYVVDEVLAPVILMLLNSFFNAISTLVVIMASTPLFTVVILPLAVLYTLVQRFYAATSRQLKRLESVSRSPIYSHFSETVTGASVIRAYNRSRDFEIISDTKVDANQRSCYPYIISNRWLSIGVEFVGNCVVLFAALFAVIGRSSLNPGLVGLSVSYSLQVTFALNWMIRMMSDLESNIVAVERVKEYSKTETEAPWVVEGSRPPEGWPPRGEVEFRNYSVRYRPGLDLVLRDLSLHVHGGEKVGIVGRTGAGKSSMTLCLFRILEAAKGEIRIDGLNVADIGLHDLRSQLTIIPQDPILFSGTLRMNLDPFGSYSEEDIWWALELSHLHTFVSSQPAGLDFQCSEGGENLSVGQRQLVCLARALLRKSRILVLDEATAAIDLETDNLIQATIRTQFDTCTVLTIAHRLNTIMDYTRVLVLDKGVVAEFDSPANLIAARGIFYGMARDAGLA
The test system of data set [6] is Abcc4. Kind of data set: Plasma and liver pharmacokinetics after oral sorafenib in Abcc4. To be noted: after oral sorafenib 10 mg/kg; Abcc4(−/−) mice.
The target of data set [7] is human ABCC2 (Homo sapiens, UniProt Q92887). Kind of data set: In vitro vesicular transport, inside-out Sf9 vesicles expressing human ABCC2.
Sequence of human ABCC2 (Q92887 whole entry): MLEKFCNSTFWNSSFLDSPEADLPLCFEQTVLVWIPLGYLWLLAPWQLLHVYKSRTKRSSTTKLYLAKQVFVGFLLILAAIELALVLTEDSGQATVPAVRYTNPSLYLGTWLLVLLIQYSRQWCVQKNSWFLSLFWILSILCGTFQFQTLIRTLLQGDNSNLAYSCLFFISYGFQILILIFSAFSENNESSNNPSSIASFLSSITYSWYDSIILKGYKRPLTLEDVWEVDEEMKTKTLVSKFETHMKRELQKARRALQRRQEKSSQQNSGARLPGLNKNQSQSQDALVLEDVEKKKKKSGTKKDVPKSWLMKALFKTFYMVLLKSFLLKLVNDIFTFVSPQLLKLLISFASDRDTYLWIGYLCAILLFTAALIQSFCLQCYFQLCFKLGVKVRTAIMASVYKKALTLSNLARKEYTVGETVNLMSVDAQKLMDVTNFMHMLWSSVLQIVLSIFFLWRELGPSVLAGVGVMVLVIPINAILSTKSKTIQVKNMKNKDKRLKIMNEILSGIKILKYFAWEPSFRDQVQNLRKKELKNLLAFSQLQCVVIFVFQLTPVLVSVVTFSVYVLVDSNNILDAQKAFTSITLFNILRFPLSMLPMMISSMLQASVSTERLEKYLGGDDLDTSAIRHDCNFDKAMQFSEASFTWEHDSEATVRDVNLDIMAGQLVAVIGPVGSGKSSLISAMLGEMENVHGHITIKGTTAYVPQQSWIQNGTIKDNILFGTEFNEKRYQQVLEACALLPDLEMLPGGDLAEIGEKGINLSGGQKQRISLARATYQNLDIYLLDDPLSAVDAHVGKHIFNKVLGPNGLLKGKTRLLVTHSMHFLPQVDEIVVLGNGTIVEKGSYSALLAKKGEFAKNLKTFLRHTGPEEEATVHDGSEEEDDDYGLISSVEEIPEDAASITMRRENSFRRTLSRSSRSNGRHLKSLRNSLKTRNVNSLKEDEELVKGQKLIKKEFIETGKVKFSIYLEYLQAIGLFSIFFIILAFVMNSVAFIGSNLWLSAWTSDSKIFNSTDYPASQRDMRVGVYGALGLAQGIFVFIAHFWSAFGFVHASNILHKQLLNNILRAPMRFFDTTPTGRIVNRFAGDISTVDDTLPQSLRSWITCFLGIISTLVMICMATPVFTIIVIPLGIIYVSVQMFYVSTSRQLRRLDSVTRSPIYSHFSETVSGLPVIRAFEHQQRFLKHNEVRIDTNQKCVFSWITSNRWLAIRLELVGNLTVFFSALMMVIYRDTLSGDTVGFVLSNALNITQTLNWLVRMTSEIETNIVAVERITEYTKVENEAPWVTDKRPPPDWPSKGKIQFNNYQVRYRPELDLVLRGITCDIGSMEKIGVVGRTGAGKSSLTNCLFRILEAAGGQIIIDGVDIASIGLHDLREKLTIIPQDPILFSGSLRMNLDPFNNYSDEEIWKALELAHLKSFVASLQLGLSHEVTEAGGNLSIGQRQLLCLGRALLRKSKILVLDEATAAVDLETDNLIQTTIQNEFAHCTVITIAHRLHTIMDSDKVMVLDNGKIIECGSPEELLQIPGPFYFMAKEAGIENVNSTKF
For data set [8], the system named is Abcc2. Kind of data set: Pharmacokinetics. To be noted: after oral sorafenib 10 mg/kg.
Data set [9] has as its system Abcc3;Abcc4. Kind of data set: Plasma and liver pharmacokinetics after oral sorafenib in Abcc3. The conditions noted are these: after oral sorafenib 10 mg/kg; Abcc3;Abcc4(−/−) mice.
The test system of data set [10] is Oatp1a/1b;Abcc2;Abcc3. The conditions noted are these: oral sorafenib 10 mg/kg; Oatp1a/1b;Abcc2;Abcc3(−/−) mice.
For data set [11], the system named is Abcc3. Kind of data set: Plasma and liver pharmacokinetics after oral sorafenib in Abcc3. To be noted: oral sorafenib 10 mg/kg; Abcc3(−/−) mice. Format: in vivo, mouse.
Data set [12] has as its system mouse intestinal β-glucuronidases. Kind of data set: Ex vivo cecal incubations of SG. The data set is classed as in vitro ADME. The conditions noted are these: SG 2 µM, 6-hour period.
For data set [13] the following is noted: cited from earlier work.
Data set [14] is described as follows: Sorafenib plasma concentrations in FVB wildtype mice after oral sorafenib. To be noted: sorafenib 10 mg/kg oral.
For data set [15], the system named is Oatp1a/1b;Abcc2. The conditions noted are these: oral sorafenib 10 mg/kg; Oatp1a/1b;Abcc2(−/−) mice.
Data set [16] is classed as in vivo, mouse. To be noted: oral SG 10 mg/kg.
In data set [17] the test system is Oatp1a/1b. Kind of data set: Plasma and liver pharmacokinetics after oral sorafenib in Oatp1a/1b. The data set is classed as in vivo, mouse. The conditions noted are these: oral sorafenib 10 mg/kg; Oatp1a/1b(−/−) mice.
The test system of data set [18] is Oatp1a/1b;Abcc3. Described as above. Format: in vivo, mouse. The conditions noted are these: oral sorafenib 10 mg/kg; Oatp1a/1b;Abcc3(−/−) mice.
Where [19] appears, read: SG 10 µM, 5-min incubation, ATP 4 mM.
Where [20] appears, read: increasing SG concentrations, 5 min, ATP 4 mM.
Setting [21] is: read-out: Km of SG transport, increasing SG concentrations, 5 min, ATP 4 mM.
[22] abbreviates: rifampin 100 µM, SG 10 µM, 5 min.

Turning to sorafenib-glucuronide [SG], the “uptake of SG relative to control vesicles” value in [1], in [3] (setting [19]), in [4] (SG 10 µM), in [5] (setting [19]) and in data set [7] (setting [19]) was “efficiently increased” throughout. The “SG liver-to-plasma ratio in Abcc2(−/−) versus wildtype mice” value in data set [2] (after oral sorafenib 10 mg/kg) is “decreased”. Also, the “increase in SG liver concentrations in Abcc2(−/−) versus wildtype mice” value in data set [2] (after oral sorafenib 10 mg/kg) is ~ 3 fold. Besides, the “increase of plasma levels of SG in Abcc2(−/−) versus wildtype mice” value in data set [2] (after oral sorafenib 10 mg/kg) was ~ 350 fold. The “reduction of biliary output of SG in Abcc2(−/−) versus wildtype mice” value in data set [2] (after oral sorafenib 10 mg/kg, bile collected for 2 hours) is listed as ~ 12 fold. In data set [2] (after oral sorafenib 10 mg/kg, irrespective of Abcc2 status), the urinary excretion entry is recorded as “minor route of elimination”. Moreover, the “transport efficiency, lower than that observed for ABCC2” value in [3] (SG transport) and in [5] (SG transport) was “about 7 fold” each time. The “Vmax of SG transport” value in data set [3] (setting [20]) worked out at 221 ± 11 pmol/min/mg; in data set [5] (setting [20]), 196 ± 44 pmol/min/mg. The Michaelis constant (Km) stood at 146 ± 14 µM in data set [3] (setting [21]) and 186 ± 72 µM in data set [5] (setting [21]). Moreover, the “concentrations of SG in plasma and liver, effect of Abcc4 deficiency” value in data set [6] and in data set [9] was “not substantially affected” throughout. Besides, the “maximal velocity (Vmax) of SG transport” value in data set [7] (setting [20]) is recorded as 155 ± 11 pmol/min/mg. Also, the “SG in bile of wildtype or Abcc2(−/−) rats” value in data set [8] is “not detected”. For the same compound, the “SG in plasma of wildtype or Abcc2(−/−) rats” value in data set [8] is “not detected”.

For the compound `CNC(=O)c1cc(Oc2ccc(NC(=O)Nc3ccc(Cl)c(C(F)(F)F)c3)cc2)ccn1` [sorafenib], in [2] (oral sorafenib 10 mg/kg), the “biliary output of sorafenib, Abcc2(−/−) compared to wildtype mice” value is given as “not associated with altered”; the “liver uptake of sorafenib, Abcc2(−/−) compared to wildtype mice” value is listed as “not associated with altered”; the “plasma disposition of sorafenib, Abcc2(−/−) compared to wildtype mice” value is “not associated with altered”. Further, the “plasma and liver levels of sorafenib” value in data set [10] is “not substantially altered”. Moreover, in data set [11], the “liver levels of sorafenib versus wildtype” value is given as “similar” and the “plasma levels of sorafenib versus wildtype” value is on record as “not substantially altered”. For the same compound, the “sorafenib levels formed from SG in crude suspension of cecal content” value in data set [12] is recorded as “corresponding increase”. Also, the transport of sorafenib result in data set [4] (sorafenib 10 µM) is “weakly”. Moreover, in data set [13] (adults and children treated at 400 mg or 200 mg/m^2 twice daily), the “average sorafenib plasma steady-state concentrations” value was 10 µM. For the same compound, in [13] (neomycin treatment in humans), the “decrease of systemic exposure to sorafenib by neomycin treatment” value is reported as “more than 50%”. The “sorafenib uptake relative to control vesicles” value in data set [7] (sorafenib 10 µM, 5-min incubation, ATP 4 mM) is given as “moderately increased”. Moreover, in data set [14], the “sorafenib plasma steady-state concentrations” value lay within 6 to 10 µM. Besides, the “plasma and liver levels of sorafenib” value in data set [15] is “not substantially altered”. Also, the “increase in plasma levels in Abcc2(−/−) versus wildtype rats” value in data set [8] is listed as ~ 2 fold. Also, in [16] (initial study), the “time until sorafenib was detected in plasma after SG administration” value was 8 h. In addition, the “sorafenib peak levels in plasma of vehicle-pretreated mice” value in data set [16] (at 8 hours after SG administration) was in the range of 226 to 897 ng/mL. Besides, the “sorafenib levels in plasma of neomycin-pretreated mice” value in [16] (neomycin 200 mg/kg twice daily for 5 days, 8 to 24 hours) was “below the limit of quantification”. The “time of sorafenib peak levels after SG administration” value in data set [16] (vehicle-pretreated mice) was determined as 8 h. Further, in data set [17], the “liver levels of sorafenib versus wildtype” value is reported as “similar”; the “plasma levels of sorafenib versus wildtype” value was “not substantially altered”; the “plasma sorafenib exposure, lower than wildtype” value was ~ 25%. For the same compound, in data set [18], the “liver levels of sorafenib versus wildtype” value is “similar” and the “plasma levels of sorafenib versus wildtype” value was “not substantially altered”.

In the case of `CO[C@H]1/C=C/O[C@@]2(C)Oc3c(C)c(O)c4c(O)c(c(/C=N/N5CCN(C)CC5)c(O)c4c3C2=O)NC(=O)/C(C)=C\C=C\[C@H](C)[C@H](O)[C@@H](C)[C@@H](O)[C@@H](C)[C@H](OC(C)=O)[C@@H]1C` [rifampin], the “inhibition of ABCC4-mediated SG uptake” value in data set [3] (setting [22]) is “sensitive to inhibition”. In addition, in data set [5] (setting [22]), the “inhibition of ABCC3-mediated SG uptake” value is listed as “sensitive to inhibition”. In [7] (setting [22]), the “inhibition of ABCC2-mediated SG uptake” value is recorded as “sensitive to inhibition”.

On to `CNC(=O)c1cc(Oc2ccc(NC(=O)Nc3ccc(Cl)c(C(F)(F)F)c3)cc2)cc[n+]1[O-]` [sorafenib-N-oxide], for which, in data set [8], the “increase in plasma levels in Abcc2(−/−) versus wildtype rats” value is given as ~ 2 fold.
